# Read-outs that look alike come from different tables or passages of the source.
# Experiments:
# AaV-type H^+-ATPase = tested on: AaV-type H^+-ATPase; parameters: method as in PMID 24260359; details: larval Ae. aegypti; cited from earlier work
# AaAQP4 = tested on: AaAQP4; parameters: method as in PMID 24260359; details: larval Ae. aegypti anal gills; cited from earlier work
# Larvae of An. sinensis = tested on: Larvae of An. sinensis; parameters: method as in PMID 26085316; details: An. sinensis larvae compared with Ae. aegypti larvae; cited from earlier work
# larval Ae. aegypti = tested on: larval Ae. aegypti; parameters: method as in PMID 23676010; details: cited from earlier work
# [1] = target: acetylcholinesterase (AChE) from third-instar Ae. aegypti larvae (Aedes aegypti, UniProt A4GND7); experiment: acetylcholinesterase inhibition assay; format: biochemical; details: based on IC50 values
# acetylcholinesterase (AChE) from third-instar Ae. aegypti larvae, sequence (A4GND7 37-679): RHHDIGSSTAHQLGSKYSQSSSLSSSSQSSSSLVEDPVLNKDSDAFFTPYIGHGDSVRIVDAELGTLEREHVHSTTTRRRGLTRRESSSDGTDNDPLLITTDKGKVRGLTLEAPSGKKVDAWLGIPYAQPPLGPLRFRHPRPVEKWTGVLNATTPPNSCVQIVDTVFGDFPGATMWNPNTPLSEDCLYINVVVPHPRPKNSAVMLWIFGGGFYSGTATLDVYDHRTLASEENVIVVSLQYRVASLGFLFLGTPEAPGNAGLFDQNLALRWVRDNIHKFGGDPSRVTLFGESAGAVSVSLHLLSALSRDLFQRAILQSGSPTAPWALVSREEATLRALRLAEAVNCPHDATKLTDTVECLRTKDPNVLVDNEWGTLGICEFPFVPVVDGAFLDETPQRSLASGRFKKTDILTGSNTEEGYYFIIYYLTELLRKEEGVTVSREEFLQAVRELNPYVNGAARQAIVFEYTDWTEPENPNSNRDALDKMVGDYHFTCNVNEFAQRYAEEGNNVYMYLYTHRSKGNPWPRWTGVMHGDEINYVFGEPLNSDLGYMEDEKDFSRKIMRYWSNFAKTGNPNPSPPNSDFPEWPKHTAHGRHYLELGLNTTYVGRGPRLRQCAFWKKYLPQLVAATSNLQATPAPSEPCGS
# Procedure: The in vitro AChE inhibitory activity of the test compounds was assessed according to the method of Perumalsamy et al.[42]. Third-instar Ae. aegypti larvae were used in all experiments. Whole bodies of 50 larvae were homogenized in 1 mL of ice-cold 0.1 M phosphate buffer (pH 8.0) using a glass tissue homogenizer. After filtering through cheesecloth, the homogenate was centrifuged at 1,000 × g at 4 °C for 5 min. The supernatant was used directly as the enzyme source for AChE. The protein levels were determined using the Bradford Protein Assay Kit (Bio-Rad Laboratories, Hercules, CA, USA) using BSA as the standard. The reaction mixture consisted of 50 µL of the crude enzyme preparation (4.3–4.8 µg protein equivalents), 150 µL of 0.1 M phosphate buffer, 20 µL of 3 mM DTNB in phosphate buffer (pH 7.0), and 1 µL of various concentrations of each test compound in ethanol. The reaction mixture was incubated at 30 °C for 5 min, and 20 µL of 32 mM ATChI was then added to the mixture. After incubation for 30 min, the reaction was terminated by adding 20 µL of 5 mM eserine salicylate. Absorbance was recorded at 412 nm using a VersaMax microplate reader (Molecular Devices, Sunnyvale, CA, USA). […] The results are expressed as the means ± standard errors (SEs) of triplicate samples from three independent experiments.
# (§1) The concentration of the test compounds required to produce 50% AChE inhibitory activity (IC50) was determined using the SAS 9.13 program (Cary: SAS Institute; 2014). Concentration-mortality data were subjected to probit analysis using the SAS 9.13 program. […] Statistical analyses were performed using the SAS 9.13 program. Multiple linear regression and correlation analysis were performed using the SPSS 24 program (Armonk: IBM Corp.; 2016).
# [2] = tested on: third-instar larvae of insecticide-susceptible Culex pipiens pallens; experiment: contact mortality bioassay, 24 h exposure; format: in vivo; details: 24 h exposure; for LC50: Culex pipiens, 24 h
# Procedure: (§2) A contact mortality bioassay[25] was used to evaluate the toxicity of all compounds against third-instar larvae of the four mosquito species. Each test compound in methanol was suspended in DW with Triton X-100 (20 µL/L). Groups of 20 mosquito larvae were separately placed into paper cups (270 mL) containing each compound solution (250 mL). […] Negative controls consisted of a methanol–Triton X-100 solution in DW.
# (§3) Treated and control (methanol–Triton X-100 solution only) larvae were maintained under the same conditions as those used for colony maintenance without providing food. Larval mortalities were determined 24 h post-treatment. […] All treatments were performed three times using 20 larvae per replicate.
# as §1
# [3] = tested on: third-instar larvae of insecticide-susceptible Aedes aegypti; experiment: contact mortality bioassay, 24 h exposure; format: in vivo; details: 24 h exposure; for LC50: Aedes aegypti, 24 h
# Procedure: as §2, §3, §1
# [4] = tested on: third-instar larvae of insecticide-resistant Anopheles sinensis; experiment: contact mortality bioassay, 24 h exposure; format: in vivo
# Procedure: as §2, §3, §1
# [5] = tested on: third-instar larvae of insecticide-susceptible Aedes albopictus; experiment: contact mortality bioassay, 24 h exposure; format: in vivo
# Procedure: as §2, §3, §1
compound,measurement,setting,value
CCCCC/C=C/C=C/C(=O)NCC(C)C [pellitorine],expression levels of the gene encoding AaV-type H^+-ATPase,AaV-type H^+-ATPase,slight decreases
same,AaAQP4 expression levels,AaAQP4,inhibited the AaAQP4 expression levels
CC1(C)[C@H](C(=O)O[C@H](C#N)c2cccc(Oc3ccccc3)c2)[C@@H]1C=C(Br)Br [deltamethrin],relative susceptibility ratio (RSR),Larvae of An. sinensis,611
Cc1ccc(C(C)C)cc1O [carvacrol],LC50,larval Ae. aegypti,69 µg/mL
Oc1ccccc1 [Phenol],AChE inhibitory activity (in words),[1],lowest of all of the compounds that were examined
same,LC50,"[2]; Table 6, structure-activity series, read-out: LC50 (mg/L) (95% CI)",41.7 mg/L
same,LC90 (mg/L) (95% CI),"[2]; Table 6, structure-activity series",185.1 (133.5–306.6) mg/L
same,LC50,"[3]; Table 7, structure-activity series, read-out: LC50 (mg/L) (95% CI)",43.2 mg/L
same,LC90 (mg/L) (95% CI),"[3]; Table 7, structure-activity series",207.1 (145.1–363.6) mg/L
same,LC50,larval Ae. aegypti,194 µg/mL
"COP(=S)(OC)Oc1ccc(Sc2ccc(OP(=S)(OC)OC)cc2)cc1 [Temephos, temephos, reference compound]",LC50,"[4]; Anopheles sinensis, 24 h, read-out: LC50 (mg/L) (95% CI)",0.4 mg/L
same,LC90 (mg/L) (95% CI),"[4]; Table 5, larvae resistant to deltamethrin and temephos, 24 h exposure",1.39 (1.05–2.13) mg/L
same,Slope ± SE,"[4]; probit slope, Table 5, larvae resistant to deltamethrin and temephos, 24 h exposure",2.2 ± 0.15
same,LC50,"[2]; read-out: LC50 (mg/L) (95% CI), Table 2, KS-CP strain",0.0162 mg/L
same,LC90 (mg/L) (95% CI),"[2]; Table 2, KS-CP strain",0.0749 (0.0551–0.1177) mg/L
same,LC50,"[5]; Aedes albopictus, 24 h, read-out: LC50 (mg/L) (95% CI)",0.0132 mg/L
same,LC90 (mg/L) (95% CI),"[5]; Table 4, 24 h exposure",0.0778 (0.0547–0.1343) mg/L
same,Slope ± SE,"[5]; probit slope, Table 4, 24 h exposure",1.6 ± 0.21
same,LC50,"[3]; read-out: LC50 (mg/L) (95% CI), Table 3",0.0125 mg/L
same,LC90 (mg/L) (95% CI),[3]; Table 3,0.0658 (0.0479–0.1059) mg/L
same,relative susceptibility ratio (RSR),Larvae of An. sinensis,29
COP(=S)(OC)Oc1ccc(SC)c(C)c1 [fenthion],relative susceptibility ratio (RSR),Larvae of An. sinensis,11

# From paper PMC6344527, “Toxicity and possible mechanisms of action of honokiol from Magnolia denudata seeds against four mosquito species” (Scientific Reports, 2019)
